For assay [1], the system named is human HLA-A24 and β2-microglobulin. Kind of assay: MHC-peptide complex formation assay (ELISA), HLA-A24. It counts as binding. The conditions noted are these: MHC-peptide formation rate versus positive control peptide.
The test system of assay [2] is T cells (spleen cells from HLA-A24 transgenic mice). In words: IFN-γ ELISpot on spleen cells of peptide-immunized HLA-A24 transgenic mice. It is filed as in vivo, HLA-A24 transgenic mouse. The following applies: HLA-A24 transgenic mice immunized as in Example 2; FIG. 2. An excerpt:
FIG. 2 is a chart showing induction of interferon γ in spleen cells from HLA-A24 transgenic mice immunized with a number of immunogenic peptides from TAL6: peptides 17 (SEQ ID NO:14), 18 (SEQ ID NO:15), 20 (SEQ ID NO:16), 21 (SEQ ID NO:17), 22 (SEQ ID NO:18), 23 (SEQ ID NO:19), 24 (SEQ ID NO:20), 26 (SEQ ID NO:21), 27 (SEQ ID NO:22), 29 (SEQ ID NO:41), and 30 (SEQ ID NO:23). “N” refers to a negative control and “P” refers to a positive control.
(§1) One mg of each of the peptides (test peptides) that were identified as HLA-A2-restricted T-cell epitopes in Examples 1 above and 1 mg of PADRE peptide ([…]; SEQ ID NO:25), both in 0.5 ml PBS, were mixed together with 0.5 mL incomplete Freund's adjuvant (IFA). An EBV-derived HLA-A2-restricted epitope, i.e., […](GLC; SEQ ID NO:35), was used as a positive control and an EBV-derived HAL-A24-restricted epitope, i.e., TYGPVFMCL (TYG; SEQ ID NO:37), was used as negative control. 100 μl of the mixture (containing 50 μg of a test peptide) was injected s.c. into the tail base of a HLA-A2 transgenic mouse, once every 7 days for two times. Spleen cells were harvested from the treated mice 7 days after the second injection and cultured in the presence of 10 μg/mL of the test peptide. The supernatant of the cell culture was subjected to an ELISpot assy to examine the amount of IFN-γ contained therein, which correlates to the activity of the test peptide for stimulating T cells.
Each of the peptides (test peptides) that were identified as HLA-A24-restricted T-cell epitopes in Examples 3 above were used to immunize HAL-A24 transgenic mice, following the procedures described in Example 2 above. EBV peptides GLC and TYG were used as a negative control and a positive control, respectively.

Assay [3] relates to splenocytes from pEK/TAL6-immunized mice. In words: IFN-γ ELISpot on splenocytes of pEK/TAL6 DNA immunized mice stimulated with TAL6 peptides. It counts as in vivo. The following applies: splenocytes from pEK/TAL6-immunized mice stimulated with the peptide; FIG. 3.
For assay [4], the system named is tumor cells EL4/TAL6/HLA-A2. In words: Tumor growth after peptide immunization and transplantation of EL4/TAL6/HLA-A2 tumor cells. It counts as in vivo, mice. As for the experimental part:
FIG. 4 is a chart showing inhibition of tumor growth in mice immunized by immunopeptides derived from TAL6. Tumor volume was calculated using the formula: tumor volume=length×width×width/2. Panel (a): HLA-A2 transgenic mice. Panel (b): Wild-type mice.
Peptide 2 or Peptide 5 listed in Table 1 above, mixed with IFA, was administered subcutaneously to HLA-A2 transgenic mice (50 μg/mouse) or wild-type C57BL/6 mice twice in two weeks. Twenty-one days later, each of the immunized mice was transplanted subcutaneously with 2×10^5 of tumor cells EL4/TAL6/HLA-A2 (EL4 cells stably expressing both TAL6 and HLA-A2) to induce tumor growth in the immunized mice. Sizes of the tumors in the treated mice were monitored every 2-3 days. The tumor volume was calculated using the formula: tumor volume=length×width×width/2.

Assay [5] has as its system T cells (spleen cells from HLA-A2 transgenic mice). In words: IFN-γ ELISpot on spleen cells of peptide-immunized HLA-A2 transgenic mice. It is filed as in vivo, HLA-A2 transgenic mouse. The conditions noted are these: 50 μg peptide with PADRE peptide and IFA s.c. twice; spleen cells cultured with 10 μg/mL test peptide; FIG. 1. As for the experimental part: FIG. 1 is a chart showing induction of interferon γ in spleen cells from HLA-A2 transgenic mice immunized with a number of immunogenic peptides from TAL6: peptides 1 (SEQ ID NO:1), 2 (SEQ ID NO:2), 5 (SEQ ID NO:4), 6 (SEQ ID NO:5), 7 (SEQ ID NO:6), 8 (SEQ ID NO:7), 9 (SEQ ID NO:8), 11 (SEQ ID NO: 10), and 14 (SEQ ID NO:12). “NP” refers to absence of any peptide.
as §1

Where [6] appears, read: HLA-A2 transgenic mice, 50 μg/mouse peptide with IFA s.c. twice, FIG. 4 panel (a).

Take “GGIEFILCL (Synthetic HLA-A24 restricted CTL epitope (170-178 aa of TAL6)) [Peptide 32, TAL6 position 170-178]”: the “Relative binding (%) to HLA-A24” value in assay [1] was 25.29%. With “KYASENHLS (Synthetic HLA-A24 restricted CTL epitope (36-44 aa of TAL6)) [Peptide 21, TAL6 position 36-44]”, the “Relative binding (%) to HLA-A24” value in assay [1] stood at 64.59%. With “EWNVSLFSIL (Synthetic HLA-A24 restricted CTL epitope (157-166 aa of TAL6)) [Peptide 31, TAL6 position 157-166]”, the “Relative binding (%) to HLA-A24” value in assay [1] is listed as 22.24%. Take “QYLLDTSTW (Synthetic HLA-A24 restricted CTL epitope (138-147 aa of TAL6)) [Peptide 27, TAL6 position 138-147]”: the “IFN-γ secretion of T cells” value in assay [2] is listed as “induced IFN-γ secretion of T cells”. For the same sequence, in assay [1], the “Relative binding (%) to HLA-A24” value was found to be 110.75%.

Take “IVEWNVSLF (Synthetic HLA-A24 restricted CTL epitope (155-163 aa of TAL6)) [Peptide 29, TAL6 position 155-163]”: in assay [2], the “IFN-γ secretion of T cells” value is given as “induced IFN-γ secretion of T cells”. Moreover, the “Relative binding (%) to HLA-A24” value in assay [1] is listed as 41.01%. For the sequence “SLVGLALLC (Synthetic HLA-A2 restricted CTL epitope (13-21 aa of TAL6)) [Peptide 2, TAL6 position 13-21]”, the “IFN-γ-secreting cells activated by test TAL6 peptide” value in assay [3] is listed as “responsive”. Further, the “Inhibition of tumor growth (tumor volume)” value in assay [4] (setting [6]) was “reduced tumor growth in the HLA-A2 transgenic mice, albeit in a lower level”. Also, the “IFN-γ secretion of T cells” value in assay [5] is “induced IFN-γ secretion of T cells”. For “TFASTEGQYL (Synthetic HLA-A24 restricted CTL epitope (131-140 aa of TAL6)) [Peptide 26, TAL6 position 131-140]”, the “Relative binding (%) to HLA-A24” value in assay [1] worked out at 115.71%. As for “TFASTEGQY (Synthetic HLA-A24 restricted CTL epitope (131-139 aa of TAL6)) [Peptide 25, TAL6 position 131-139]”, in assay [1], the “Relative binding (%) to HLA-A24” value is given as 49.24%. For the sequence “CYGKCARCI (Synthetic HLA-A24 restricted CTL epitope (2-10 aa of TAL6)) [Peptide 17, TAL6 position 2-10]”, the “Relative binding (%) to HLA-A24” value in assay [1] was 125.73%.

As to “EWNVSLFSI (Synthetic HLA-A24 restricted CTL epitope (157-165 aa of TAL6)) [Peptide 30, TAL6 position 157-165]”, the “IFN-γ secretion of T cells” value in assay [2] was “induced IFN-γ secretion of T cells”. The “Relative binding (%) to HLA-A24” value in assay [1] is 74.01%. Take “GYCVIVAAL (Synthetic HLA-A24 restricted CTL epitope (105-113 aa of TAL6)) [Peptide 24, TAL6 position 105-113]”: the “Relative binding (%) to HLA-A24” value in assay [1] turned out to be 117.78%. “LLMLLPAFV (Synthetic HLA-A2 restricted CTL epitope (58-66 aa of TAL6)) [Peptide 5, TAL6 position 58-66]”: the “IFN-γ-secreting cells activated by test TAL6 peptide” value in assay [3] was “responsive”. The “Inhibition of tumor growth (tumor volume)” value in assay [4] (setting [6]) is recorded as “significantly inhibited tumor growth”; in assay [4] (wild-type C57BL/6 mice, peptide with IFA s.c. twice, FIG. 4 panel (b)), “not in the wild-type mice”. Moreover, in assay [5], the “IFN-γ secretion of T cells” value was “induced IFN-γ secretion of T cells”. For the sequence “LYFPNGETKY (Synthetic HLA-A24 restricted CTL epitope (28-36 aa of TAL6)) [Peptide 20, TAL6 position 28-36]”, in assay [1], the “Relative binding (%) to HLA-A24” value was found to be 84.95%. For “GGIEFILCLI (Synthetic HLA-A24 restricted CTL epitope (170-179 aa of TAL6)) [Peptide 33, TAL6 position 170-179]”, in assay [1], the “Relative binding (%) to HLA-A24” value came to 14.85%. Regarding “IAANILLYF (Synthetic HLA-A24 restricted CTL epitope (22-30 aa of TAL6)) [Peptide 19, TAL6 position 22-30]”, in assay [1], the “Relative binding (%) to HLA-A24” value stood at 0.00%. Turning to “HSLVGLALL (Synthetic HLA-A24 restricted CTL epitope (12-20 aa of TAL6)) [Peptide 18, TAL6 position 12-20]”, the “Relative binding (%) to HLA-A24” value in assay [1] turned out to be 61.73%. As for “FFSGIVGGGL (Synthetic HLA-A24 restricted CTL epitope (49-57 aa of TAL6)) [Peptide 23, TAL6 position 49-57]”, in assay [1], the “Relative binding (%) to HLA-A24” value is 72.36%. Consider “RFVWFFSGI (Synthetic HLA-A24 restricted CTL epitope (45-53 aa of TAL6)) [Peptide 22, TAL6 position 45-53]”, for which the “Relative binding (%) to HLA-A24” value in assay [1] worked out at 91.88%.

Regarding “HIVEWNVSLF (Synthetic HLA-A24 restricted CTL epitope (154-163 aa of TAL6)) [Peptide 28, TAL6 position 154-163]”, in assay [1], the “Relative binding (%) to HLA-A24” value turned out to be 28.03%.

Values taken from US8465756B2, “Immunogenic peptides of tumor associated antigen L6 and uses thereof in cancer therapy” (National Health Research Institutes, priority 2009, dated 2013).
